The test system of assay [1] is meningeal lymphatic vessels. The assay is described as follows: EAE (MOG35-55) after Visudyne meningeal lymphatic ablation. The format is in vivo, C57b16 mice. The procedure:
FIG. 22 is a graph showing ablation of the meningeal lymphatic decreases EAE score. Adult C57b16 mice were injected ICV (cisterna magna) or intranasally with Visudyne that was then photoconverted (Meningeal ablation) or not (Control). On the same day, EAE was induced by injected MOG 35-55 emulsion subcutaneously. At day 17 mice were scored prior to sacrifice (brain, meninges, and spinal cord were harvested for IHC to measure the amount of demyelination and the infiltrate).
EAE clinical symptom development in laser. Visudyne (i.n.)+laser and Visudyne (i.c.m.)+laser treated mice. (mean±s.e.m. n=12-41 mice/group pooled from 3 independent experiments, ****p<0.0001, repeated measures 2 way ANOVA with Tukey's multiple comparisons test) is shown in FIG. 51A. Incidence of EAE development (day mice reach a score of 1 or above) in laser, Visudyne (i.n.)+laser and Visudyne (i.c.m.)+laser treated mice. Representative dot plots of CD4 and CD8 T cells in the spinal cord of laser and Visudyne (i.c.m.)+laser mice during late onset EAE (D17) are shown in FIG. 51C. Quantification of the number of CD4 T cells in the spinal cord of laser and Visudyne (i.c.m.)+laser treated mice at D17 post immunization. (mean±s.e.m. n=4/5 mice per group, representative of 2 independent experiments, **p=0.005, unpaired t test) is shown in FIG. 51D. […] Accordingly, it is contemplated that ablation of lymphatic vessels in accordance with some embodiments herein can ameliorate symptoms and disease development of MS, for which EAE (MOG) is a model.

The test system of another assay is APPSwe transgenic mice. The experiment in a line: Visudyne ablation in APPSwe mice, Morris water maze (Example 10). The format is in vivo. The note with it: APPSwe mice 6-7 months-old, ablation every 2 weeks for 1 month, vs vehicle. An excerpt: Adult (6-7 months-old) APPSwe transgenic mice were anesthetized, injected with visudyne (ICM), or vehicle as a control, and submitted to a step of transcranial photoconversion, every 2 weeks for a total of 1 month. […] Results are presented as mean±s.e.m.; n=9 per group; *P<0.05, two-way ANOVA—Repeated Measures, with Bonferroni post hoc test.

In assay [2] the test system is meningeal lymphatic vessels. The assay is described as follows: Visudyne ablation, OVA-A647 CSF tracer drainage and brain influx (Example 2). The format is in vivo, C57BL/6 mice. The note with it: vs vehicle. The procedure: Adult C57BL/6 mice were injected with visudyne or vehicle (ICM) followed by a step of photoconversion. 7 days post ablation, 2.5 μg of ovalbumin-Alexa647 (OVA-A647) was injected into the CSF (ICM) and mice were transcardially perfused with saline 2 h after. j, Representative sections of dcLNs were stained with DAPI and LYVE-1, and levels of drained OVA-A647 were measured, and representative sections are shown for vehicle (FIG. 24A) and visudyne (FIG. 24B). OVA-A647 alone is shown in the inset in the upper right corner of each of FIGS. 24A and 24B, and LYVE-1 alone is shown in the inset in the lower right corner of each of FIGS. 24A and 24B.

A further assay relates to meningeal lymphatics. The assay is described as follows: Photoablation of meningeal lymphatics, Visudyne 5 or 20 μg, 690 nm laser (FIG. 14). Type of assay: in vivo, mice. Particulars: 5 or 20 μg i.c.v., 24 hrs post-ablation. The procedure:
Meninges were stained for Lyve-1, Prox1 and CD31 24 hrs post-ablation. […] In FIG. 14C, the top panel refers to a control, the middle mane refers to 20,000 ng of Visudyne, and the bottom panel refers to 5,000 ng of Visudyne.

Assay [3] has as its system meningeal lymphatic vessels. The assay is described as follows: Visudyne ablation in old mice, OVA-A647 CSF tracer (Example 3). Type of assay: in vivo, C57BL/6 mice. Particulars: old (20-24 months-old) mice, 7 days post ablation, vs old+vehicle. The procedure: Injections of visudyne or vehicle (ICM), followed by a photoconversion step, were performed in adult (3 months-old) or old (20-24 months-old) C57BL/6 mice. 7 days post ablation, OVA-A647 (2.5 μg) was injected into the CSF (ICM) and mice were transcardially perfused with saline 2 h after.

Assay [4] deals with meningeal lymphatic vessels. The experiment in a line: Visudyne ablation then repeated Aβ42 injection into CSF, meningeal aggregates (Example 8). The format is in vivo, C57BL/6 mice. Particulars: Aβ42 2.5 μg every 24 h into CSF for 5 days, from 72 h after ablation, vs vehicle. The procedure: C57BL/6 adult mice were anesthetized and injected ICM with visudyne to induce meningeal lymphatic vessel ablation, or vehicle as a control. After the photoconversion step, mice were allowed to recover for 72 h. Then, catheters were implanted in the cisterna magna of all mice and 2.5 μg of Aβ42 were injected every 24 h into the CSF for a total of 5 days. […] Results are presented as mean±s.e.m.; n=5 per group; *P<0.05, **P<0.01, one-tailed Mann-Whitney test.

In the next assay the test system is nasal lymphatics. The experiment in a line: Nasal lymphatics after intranasal Visudyne (Example 25). The note with it: 24 h after intranasal (i.n.) injection. Type of assay: in vivo, mice. The procedure: Adult mice were injected i.c.m. with Visudyne. Fifteen to thirty minutes injection, Visudyne was converted using a non-thermal 689 nm laser applied on the intact skull. In the targeted group, the laser was aimed at 5 different spots localized above the meningeal lymphatics. In the non-targeted group, the laser was aimed further away to no convert the Visudyne localized within the meningeal lymphatics.
The density of exogenously injected T cells per mm2 of dCLN in targeted and non-targeted Visudyne treated mice was quantified (FIG. 49A) (expressed as percentage of the control condition)(mean±s.e.m, n=4-6 mice/group, **p=0.0072 Student t test). Images of the nasal lymphatics (Prox1GFP—green, Lyve1—red) were obtained 24 h after laser or intranasal (i.n.) injection of Visudyne. The inset illustrate the lymphatic bundle at the base of the skull that gets ablated after Visudyne treatment. Scale bar=50 μm. The density of T cells per mm2 of dCLN was quantified (FIG. 49B) or percentage of beads coverage was quantified (FIG. 49C) in the dLCN of laser, Visudyne (i.n.)+laser and Visudyne (i.c.m.)+laser treated mice (expressed as percentage of the control condition). […] T cells were quantified in the meninges of laser and Visudyne (i.c.m.)+laser treated mice at 7 days post ablation. T cells were quantified in the meninges of laser and Visudyne (i.c.m.)+laser treated mice (FIG. 49D). […]

Turning to verteporfin [Visudyne], the EAE disease development entry in assay [1] (Visudyne (i.c.m.)+laser vs laser and Visudyne (i.n.)+laser) is listed as “ameliorate disease development”. The “MOG-specific T cell activation in the deep cervical lymph nodes” value in assay [1] (Visudyne (i.c.m.)+laser vs laser, EAE) is “ameliorates MOG-specific T cell activation”. Moreover, the “EAE score / disease severity” value in assay [1] (Visudyne ICV (cisterna magna) or intranasal, photoconverted vs not, scored day 17) was “decreases disease severity”. For the same substance, in the assay on APPSwe transgenic mice, the “MWM probe and reversal” value was “No differences”; the “latency to find the platform, 4th day of the acquisition phase of the MWM” value is on record as “Significant differences”. Besides, the “amount of OVA-A647 drained into the dcLNs” value in assay [2] (2 h after OVA-A647 2.5 μg ICM, 7 days post ablation) was “significantly decreased”. In addition, in assay [2] (2 h after OVA-A647 ICM, 7 days post ablation), the “OVA-A647 influx into the brain parenchyma” value is given as “significant decrease”. Besides, the “brain parenchyma coverage by aquaporin 4 (AQP4) expressing cells” value in assay [2] (adult mice, visudyne-induced ablation) is listed as “no changes”. Further, in the assay on meningeal lymphatics, the “effect on the blood vessels (CD31)” value was “No effect on the blood vessels”; the “meningeal lymphatics in superior sagittal and transverse sinuses (Lyve-1, Prox1)” value is reported as “Disruption of lymphatics”. The “influx of a CSF tracer (OVA-A647) into the brain” value in assay [3] is “does not further aggravate”. Moreover, the “area occupied by Aβ aggregates in meningeal whole-mounts” value in assay [4] is “significant increase in aggregates”. Further, the “nasal lymphatic bundle at the base of the skull” value in the assay on nasal lymphatics is on record as “gets ablated”.
